Results: patent publication US12343371B2, “Method for suppressing or alleviating primary or secondary progressive multiple sclerosis (PPMS or SPMS) using a sustained release depot formulation comprising glatiramer acetate” (MAPI PHARMA LTD., priority 2017, dated 2025)

Test system: primary progressive EAE (PP-EAE) in C57BL/6 female mice
Test: MOG 35-55 induced primary progressive EAE (PP-EAE) in mice: clinical score, body weight, survival
Settings: for Body weight compared with untreated control (FIG. 2): P<0.05
[1] = C57BL/6 mice, PP-EAE, GA Depot 4 mg IM Day 0, 1, Copaxone 2 mg SC Days 0-8, N = 20/group, +/- standard error
[2] = C57BL/6 mice, PP-EAE, GA Depot 4 mg IM Day 0, 1, Copaxone 2 mg SC Days 0-8, N = 20/group, +/- standard error, listed as Copaxone®

Experimental: Animals were given food and water ad-libitum throughout the experiment. […] A 21G needle was used for injections in mice. […] Measurements: Body weight was measured every two days from day 0 to day 28. EAE was assessed by clinical scoring of the mice once daily from Day 0 to Day 28 post immunization (Table 2). For analysis, dead animals received clinical score of 5 and the weight recorded at the last measurement before animal death.
The following calculations were derived from clinical score raw data: mean maximum score is the mean of the highest scores noted for each mouse in a specific group up to indicated day of analysis; mean disease duration and mean day of onset were calculated as follows: Mean Disease Duration=Sum of (day of analysis−day of disease onset for each mouse)/(number of mice per group); Mean Day of Onset=(sum of day of disease onset of each mouse)/(number of mice per group). Area under the curve (AUC) of clinical score was calculated using Microsoft Excel and represents disease burden.
Glatiramer Acetate Depot (GA Depot): GA Depot was suspended in water for injection (WFI) and immediately injected intramuscularly (IM) at the indicated dose. Dose of GA Depot are given according to amount of active ingredient (i.e. GA Depot 4 mg contains 4 mg GA).
Statistical analysis: Data was analyzed using Microsoft Excel. Each data set was analyzed using single-factor analysis of variance (ANOVA) followed by one tailed student's T-test.

Substance: glatiramer acetate [Copaxone ®]
- Survival Rate at Day 28 (C57BL/6 mice, PP-EAE, GA Depot 4 mg IM Day 0, 1, Copaxone 2 mg SC Days 0-8, N = 20/group): 90%
- AUC Clinical Score [1]: 26.83 ± 2.49
- Mean Day of Onset [1]: 12.35 ± 0.23
- Mean Disease Duration [1]: 15.65 ± 0.23
- AUC Clinical Score [2]: significantly reduced
- Mean Day of Onset [2]: significantly reduced
- Mean Disease Duration [2]: significantly reduced
- Maximum Mean Disease Score (C57BL/6 mice, PP-EAE, GA Depot 4 mg IM Day 0, 1, Copaxone 2 mg SC Days 0-8, score 0-5, N = 20/group, +/- standard error): 2.25 ± 0.22
- Body weight compared with untreated control (FIG. 2) (day 21): significantly higher
- Body weight compared with untreated control (FIG. 2) (days 10 to 17 following immunization): significantly higher
- mean clinical score compared with saline group (FIG. 1) (days 11-19 and day 20, p<0.05, GA Depot 4 mg, Copaxone 2 mg days 0-8): mean clinical score of the saline group was significantly higher
